Reference: the supplement of paper PMC5908809

Columns and labels:
Experiment in all cases: relative IC50 (inflection point of fitted viability curve, relative to fitted max inhibition); higher = less sensitive
Conditions in all cases: 72 h
DERL-7 (IL-2 2.5 ng/mL) = test system: DERL-7 (IL-2 2.5 ng/mL)
Procedure: (§1)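 Drug sensitivity and resistance testing: 5 concentrations over a 10,000-fold range, 72 h at 37 °C, viability by CellTiter-Glo normalised to DMSO and benzethonium chloride controls. IC50 is the inflection point of a logistic fit (min fixed at 0, max fitted), so it is relative to the fitted maximal inhibition. Kept only where fitted max inhibition is at least 50%.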

IMC-1 (IL-2 20 ng/mL) = test system: IMC-1 (IL-2 20 ng/mL)
Procedure: as §1

KAI3 (IL-2 2.5 ng/mL) = test system: KAI3 (IL-2 2.5 ng/mL)
Procedure: as §1

KHYG-1 (IL-2 2.5 ng/mL) = test system: KHYG-1 (IL-2 2.5 ng/mL)
Procedure: as §1

NK-92 (IL-2 2.5 ng/mL) = test system: NK-92 (IL-2 2.5 ng/mL)
Procedure: as §1

NK-YS (IL-2 2.5 ng/mL) = test system: NK-YS (IL-2 2.5 ng/mL)
Procedure: as §1

NKL (IL-2 2.5 ng/mL) = test system: NKL (IL-2 2.5 ng/mL)
Procedure: as §1

SNK-6 (IL-2 2.5 ng/mL) = test system: SNK-6 (IL-2 2.5 ng/mL)
Procedure: as §1

YT (IL-2 2.5 ng/mL) = test system: YT (IL-2 2.5 ng/mL)
Procedure: as §1

[1] = test system: normal primary NK cells, pool 1 (3 donors) (IL-2 2.5 ng/mL)
Procedure: as §1

[2] = test system: normal primary NK cells, pool 1 (3 donors), resting (IL-2 0 ng/mL)
Procedure: as §1

[3] = test system: normal primary NK cells, pool 2 (3 donors) (IL-2 2.5 ng/mL)
Procedure: as §1

[4] = test system: normal primary NK cells, pool 3 (3 donors) (IL-2 2.5 ng/mL)
Procedure: as §1

Compound	relative IC50 (DERL-7 (IL-2 2.5 ng/mL))	relative IC50 (IMC-1 (IL-2 20 ng/mL))	relative IC50 (KAI3 (IL-2 2.5 ng/mL))	relative IC50 (KHYG-1 (IL-2 2.5 ng/mL))	relative IC50 (NK-92 (IL-2 2.5 ng/mL))	relative IC50 (NK-YS (IL-2 2.5 ng/mL))	relative IC50 (NKL (IL-2 2.5 ng/mL))	relative IC50 (SNK-6 (IL-2 2.5 ng/mL))	relative IC50 (YT (IL-2 2.5 ng/mL))	relative IC50 [1]	relative IC50 [2]	relative IC50 [3]	relative IC50 [4]
Nc1nc(Cl)nc2c1ncn2[C@@H]1O[C@H](CO)[C@@H](O)[C@@H]1F [Clofarabine]	21.7 nM	54.1 nM	49.6 nM	35 nM	31.2 nM	67 nM	35.6 nM	42.8 nM	225 nM	14.4 nM	7.76 nM	22.3 nM	28 nM
CCc1cnn2c(NCc3ccc[n+]([O-])c3)cc(N3CCCC[C@H]3CCO)nc12 [Dinaciclib]	13.7 nM	11 nM	8.92 nM	11.3 nM	7.4 nM	4.68 nM	4.24 nM	4.4 nM	3.6 nM	10.9 nM	16.4 nM	3.72 nM	6.24 nM
Nc1ccccc1NC(=O)c1ccc(CNc2nccc(-c3cccnc3)n2)cc1 [Mocetinostat]	381 nM	291 nM	313 nM	340 nM	246 nM	697 nM	166 nM	242 nM	1030 nM	723 nM	443 nM	703 nM	738 nM
Cc1c(N)nc([C@H](CC(N)=O)NC[C@H](N)C(N)=O)nc1C(=O)N[C@H](C(=O)N[C@H](C)[C@@H](O)[C@H](C)C(=O)N[C@H](C(=O)NCCc1nc(-c2nc(C(=O)NCCC[S+](C)C)cs2)cs1)[C@@H](C)O)[C@@H](OC1OC(CO)C(O)C(O)C1OC1OC(CO)C(O)C(OC(N)=O)C1O)c1cnc[nH]1 (stereo not given in full) [Bleomycin]	1220 nM	1480 nM	537 nM	2270 nM	662 nM	635 nM	1150 nM	41.8 nM	1530 nM	2140 nM	3560 nM	1510 nM	1150 nM
COC[C@H](NC(=O)c1cnc(C)s1)C(=O)N[C@@H](COC)C(=O)N[C@@H](Cc1ccccc1)C(=O)[C@@]1(C)CO1 [Oprozomib]	10.5 nM	76.8 nM	24.1 nM	48 nM	32.4 nM	27.7 nM	52.5 nM	50.1 nM	49.1 nM	34.7 nM	19.2 nM	17.9 nM	24.8 nM
CN(N=O)C(=O)N[C@@H](C=O)[C@@H](O)[C@H](O)[C@H](O)CO [Streptozocin]	> 10000 nM	–	> 10000 nM	–	> 10000 nM	–	> 10000 nM	–	–	> 10000 nM	> 10000 nM	–	> 10000 nM
CC1(C)CCC(c2ccc(Cl)cc2)=C(CN2CCN(c3ccc(C(=O)NS(=O)(=O)c4ccc(N[C@H](CCN5CCOCC5)CSc5ccccc5)c(S(=O)(=O)C(F)(F)F)c4)cc3)CC2)C1 [Navitoclax]	109 nM	727 nM	3.12 nM	67.7 nM	208 nM	73.6 nM	35.7 nM	4.44 nM	26.7 nM	85.3 nM	10.4 nM	83 nM	203 nM
O=C(CCCCCCC(=O)Nc1ccccc1)NO [Vorinostat]	690 nM	2290 nM	–	531 nM	467 nM	1170 nM	384 nM	713 nM	1470 nM	376 nM	394 nM	1100 nM	1980 nM
COc1nc(N)nc2c1ncn2[C@@H]1O[C@H](CO)[C@@H](O)[C@@H]1O [Nelarabine]	–	> 10000 nM	292 nM	–	–	–	1810 nM	–	–	406 nM	38.6 nM	322 nM	200 nM
CCN(CC)CCOc1ccc(C(=C(Cl)c2ccccc2)c2ccccc2)cc1 [Clomifene]	1580 nM	2410 nM	1840 nM	2490 nM	1710 nM	2280 nM	2280 nM	1730 nM	3030 nM	2560 nM	2170 nM	1810 nM	1540 nM
COc1cccc2c1C(=O)c1c(O)c3c(c(O)c1C2=O)C[C@@](O)(/C(CO)=N/NC(=O)CCCCCN1C(=O)C=CC1=O)C[C@@H]3O[C@H]1C[C@H](N)[C@H](O)[C@H](C)O1 [Aldoxorubicin]	31.2 nM	44.6 nM	41.9 nM	57.7 nM	94.9 nM	34.3 nM	4.2 nM	21.7 nM	70.8 nM	140 nM	71.6 nM	96.6 nM	134 nM
CC1(COc2ccc3c(c2)ncn3-c2ccc3cccc(N4CCC(N)CC4)c3n2)COC1 [Crenolanib]	984 nM	2710 nM	2250 nM	1820 nM	998 nM	1890 nM	633 nM	429 nM	1600 nM	1640 nM	3660 nM	1350 nM	1640 nM
CC(C)[C@H](C(=O)Nc1ccc(C(=O)NO)cc1)c1ccccc1 [AR-42]	331 nM	289 nM	77.2 nM	240 nM	129 nM	540 nM	219 nM	241 nM	527 nM	367 nM	297 nM	430 nM	527 nM
Cn1c(CCCC(=O)O)nc2cc(N(CCCl)CCCl)ccc21 [Bendamustine]	–	–	–	–	–	2600 nM	1420 nM	1680 nM	–	3960 nM	3780 nM	2960 nM	2330 nM
COc1cc([C@@H]2c3cc4c(cc3[C@@H](O[C@@H]3O[C@@H]5CO[C@@H](C)O[C@H]5[C@H](O)[C@H]3O)[C@H]3COC(=O)[C@H]23)OCO4)cc(OC)c1O [Etoposide]	134 nM	137 nM	73.2 nM	435 nM	646 nM	161 nM	47.3 nM	615 nM	1080 nM	1830 nM	743 nM	1920 nM	–
